Target: T1, adult-type mouse AChR (α1-GFP, β, δ, ε), whole-cell (Mus musculus, UniProt P02716+P04756+P20782)
T1 construct: gene Chrna1; alpha1 with GFP encoded between M3 and M4; transient expression in HEK293, GFP-sorted cells; pentamer; no background mutations; with Acetylcholine receptor subunit beta
Assay: automated whole-cell patch clamp (IonFlux […]), concentration-response
Assay type: cell-based

T1 sequence (P20782 21-493): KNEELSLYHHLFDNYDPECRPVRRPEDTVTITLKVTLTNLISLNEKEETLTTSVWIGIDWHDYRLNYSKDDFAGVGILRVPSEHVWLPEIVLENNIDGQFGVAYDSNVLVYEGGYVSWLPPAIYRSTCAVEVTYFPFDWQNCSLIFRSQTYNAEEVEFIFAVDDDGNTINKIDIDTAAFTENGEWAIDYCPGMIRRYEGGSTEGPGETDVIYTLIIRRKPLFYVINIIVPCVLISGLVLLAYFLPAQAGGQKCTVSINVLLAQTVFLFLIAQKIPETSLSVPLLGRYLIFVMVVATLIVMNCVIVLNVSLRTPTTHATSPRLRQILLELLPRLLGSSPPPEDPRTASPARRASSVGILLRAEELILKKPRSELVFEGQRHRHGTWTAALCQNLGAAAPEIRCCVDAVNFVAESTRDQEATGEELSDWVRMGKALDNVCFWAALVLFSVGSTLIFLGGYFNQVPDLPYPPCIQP
T1 sequence (P02716 25-520): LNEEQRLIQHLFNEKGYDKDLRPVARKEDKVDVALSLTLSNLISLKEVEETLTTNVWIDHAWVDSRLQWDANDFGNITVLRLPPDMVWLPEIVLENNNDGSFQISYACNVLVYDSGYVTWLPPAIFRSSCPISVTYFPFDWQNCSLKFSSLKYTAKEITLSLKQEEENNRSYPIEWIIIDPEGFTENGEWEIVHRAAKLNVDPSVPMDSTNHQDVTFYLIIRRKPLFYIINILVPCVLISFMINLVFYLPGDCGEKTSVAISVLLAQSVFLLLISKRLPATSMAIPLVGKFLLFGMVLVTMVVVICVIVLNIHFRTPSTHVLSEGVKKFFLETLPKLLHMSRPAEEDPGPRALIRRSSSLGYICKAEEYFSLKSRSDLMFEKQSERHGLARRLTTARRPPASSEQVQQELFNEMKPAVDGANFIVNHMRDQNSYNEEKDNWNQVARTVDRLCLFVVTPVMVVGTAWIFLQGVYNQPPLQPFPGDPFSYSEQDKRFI
T1 sequence (P09690 24-501, further chain): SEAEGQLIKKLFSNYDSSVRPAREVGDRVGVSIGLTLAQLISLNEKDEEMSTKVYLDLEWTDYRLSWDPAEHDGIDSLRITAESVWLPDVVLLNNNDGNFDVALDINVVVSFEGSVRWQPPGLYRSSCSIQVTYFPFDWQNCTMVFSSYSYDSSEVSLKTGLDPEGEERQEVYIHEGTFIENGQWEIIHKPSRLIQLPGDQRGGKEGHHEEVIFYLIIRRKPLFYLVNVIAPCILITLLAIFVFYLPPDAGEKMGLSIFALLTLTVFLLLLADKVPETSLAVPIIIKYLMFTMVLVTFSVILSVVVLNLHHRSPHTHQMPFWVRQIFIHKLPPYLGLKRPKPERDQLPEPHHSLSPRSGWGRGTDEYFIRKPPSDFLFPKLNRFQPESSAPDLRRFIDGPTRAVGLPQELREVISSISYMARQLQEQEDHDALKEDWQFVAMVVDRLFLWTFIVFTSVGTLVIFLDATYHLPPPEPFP
T1 sequence (P04756 21-457): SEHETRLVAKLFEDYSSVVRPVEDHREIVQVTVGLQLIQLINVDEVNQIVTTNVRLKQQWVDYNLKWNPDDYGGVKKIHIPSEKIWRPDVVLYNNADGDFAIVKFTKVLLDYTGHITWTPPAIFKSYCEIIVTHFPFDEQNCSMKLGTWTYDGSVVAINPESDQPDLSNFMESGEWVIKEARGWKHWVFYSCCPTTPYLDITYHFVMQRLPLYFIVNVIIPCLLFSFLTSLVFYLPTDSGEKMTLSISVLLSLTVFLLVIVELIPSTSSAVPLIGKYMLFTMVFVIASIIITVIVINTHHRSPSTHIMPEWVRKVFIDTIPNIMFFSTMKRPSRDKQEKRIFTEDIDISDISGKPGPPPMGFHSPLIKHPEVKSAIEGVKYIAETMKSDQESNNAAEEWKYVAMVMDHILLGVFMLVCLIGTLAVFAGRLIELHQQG

Row | Structure (SMILES) | EC50
1 | C[N+](C)(C)CCOC(N)=O [CCh] | 72.2 ± 11 µM
2 | C[N+](C)(C)C [TMA] | 843 ± 110 µM
